Series [1] concerns the target Replicase polyprotein 1ab (Severe acute respiratory syndrome coronavirus 2, UniProt P0DTD1). In words: Inhibition of SARS CoV-2 main protease preincubated for 30 min followed by substrate addition and measured after 60 mins by fluorescence assay.
For series [2], the system named is Human coronavirus OC43. The series can be described thus: microbe, parasite or virus in culture. Conditions: Betacoronavirus 1, MRC5, 120 h.
Series [3] in a line: Oral bioavailability in mouse at 10 mg/kg. The class given is ADME, organism-based. Conditions: in vivo.
Series [4] is described as follows: Volume of distribution at steady state in mouse at 3 mg/kg, iv. Conditions: in vivo, read-out: Vdss. The class given is ADME, organism-based.
The nature of series [5]: AUC in mouse at 10 mg/kg, po. The class given is ADME, organism-based. Further details: route po. Particulars: in vivo.
A short description of series [6]: Cmax in mouse at 10 mg/kg, po. Format: ADME, organism-based. Further details: route po. Particulars: in vivo.
Series [7] can be described thus: Clearance in mouse at 3 mg/kg, iv. Format: ADME, organism-based. Conditions: in vivo.
Series [8] in a line: Half life in mouse 3 mg/kg, iv. The class given is ADME, organism-based. Conditions: in vivo.
Series [9] in a line: Volume of distribution at steady state in rat at 2 mg/kg, iv. The class given is ADME, organism-based. Conditions: in vivo, read-out: Vdss.
A short description of series [10]: AUC in rat at 10 mg/kg, po. The class given is ADME, organism-based. The arrangement: dose 10 mg/kg, route po. Conditions: in vivo.
Series [11] deals with Human coronavirus OC43. The series can be described thus: In vivo antiviral activity against HCoV-OC43 infected in mouse assessed as organism survival rate at 50 mg/kg,ip for 7 days. The class given is functional. Conditions: time 7 day.
The nature of series [12]: Half life in rat 2 mg/kg, iv. Format: ADME, organism-based. Particulars: in vivo.
Series [13] can be described thus: Oral bioavailability in rat at 10 mg/kg. The class given is ADME, organism-based. Conditions: in vivo.
A short description of series [14]: Stability of compound in mouse plasma assessed as compound remaining and measured after 2 hrs. Format: ADME, cell-free.
The nature of series [15]: Clearance in rat at 2 mg/kg, iv. Format: ADME, organism-based. Particulars: in vivo.
The nature of series [16]: Cmax in rat at 10 mg/kg, po. Particulars: in vivo. Format: ADME, organism-based. The arrangement: route po.
Series [17] in a line: Stability of compound in rat plasma assessed as compound remaining and measured after 2 hrs. Format: ADME, cell-free.
The test system of a further series is SARS-CoV-2. The series can be described thus: microbe, parasite or virus in culture. Conditions: Severe acute respiratory syndrome coronavirus 2, Vero, 24 h.
Series [18] is described as follows: Stability of compound in human plasma assessed as compound remaining and measured after 2 hrs. The class given is ADME, cell-free.
The test system of series [19] is Human coronavirus OC43. In words: In vivo antiviral activity against HCoV-OC43 infected in mouse assessed as organism survival rate at 12.5 mg/kg,ip for 7 days. Format: functional. Particulars: time 7 day.
Series [20] has as its system Human coronavirus OC43. The series can be described thus: In vivo antiviral activity against HCoV-OC43 infected in mouse assessed as organism survival rate at 12.5 to 50 mg/kg,ip for 7 days. Conditions: dose 12.5-50 mg/kg, time 7.0 day. The class given is functional, organism-based.
In series [21] the test system is Human coronavirus OC43. In words: In vivo antiviral activity against HCoV-OC43 infected in mouse assessed as organism survival rate at 25 mg/kg,ip for 7 days. Format: functional. Particulars: time 7 day.
Series [22] in a line: Toxicity in mouse infected with HCoV-OC43 assessed as body weight change at 12.5 to 50 mg/kg, ip for 7 days. The class given is organism-based. Conditions: in vivo, 168 h, dose 12.5-50 mg/kg, time 7 day.

For orientation: IC50 means the concentration needed to halve the response being measured. As usually defined, the EC50 is the concentration that produces a half-maximal response. Low readings indicate higher potency in that assay, high ones lower potency in that assay. On to `CC(=O)N[C@H](C(=O)N1C[C@@H]2CCC[C@@H]2[C@H]1C(=O)N[C@H](C#N)C[C@@H]1CCNC1=O)C1CCCCC1`, for which, in series [1], the IC50 was determined as 551 nM. For the same compound, in the series with Human coronavirus OC43 [2], the EC50 was 2780 nM.
The bioavailability is the share of a dose that reaches the circulation, judged against a reference dose that is usually intravenous. Low values mean little systemic uptake, high ones much systemic uptake. By AUC is commonly meant the area under the concentration-time curve, a measure of exposure. What is called Cmax is the peak of the concentration-time curve. The clearance is the volume of plasma or blood freed of the substance per unit of time. A word on the half-life: it is how long it takes for the measured level to halve. A low value points to rapid decline. In turn, `CC(C)(C)NC(=O)C(=O)[C@H](C[C@@H]1CCNC1=O)NC(=O)[C@@H]1[C@H]2CCC[C@H]2CN1C(=O)[C@@H](NC(=O)C(F)(F)F)C1CCCC1` yielded a bioavailability in series [3] of 30.8%. Further, in series [4], the Vd worked out at 0.911 L/kg. Besides, the area under the curve (AUC) in [5] came to 16.8 µM·h. The same compound registered a maximum concentration (Cmax) in series [6] of 4800 nM. In addition, the EC50 in the series on Human coronavirus OC43 [2] worked out at 421 nM. This compound registered a clearance in series [7] of 5.06 mL/min/kg. The half-life in [8] is 196 min.
Consider `CC(C)(C)NC(=O)C(=O)[C@H](C[C@@H]1CCNC1=O)NC(=O)[C@@H]1[C@H]2CCC[C@H]2CN1C(=O)[C@@H](NC(=O)C(F)(F)F)C1CC2(CCC2)C1`, for which, in series [1], the IC50 came to 77 nM. A half-maximal response with Human coronavirus OC43 [2] (EC50) required 444 nM.
On to `CC(C)(C)[C@H](NC(=O)C(F)(F)F)C(=O)N1C[C@H]2[C@@H]([C@H]1C(=O)N[C@H](C#N)C[C@@H]1CCNC1=O)C2(C)C`, for which the values for the bioavailability in series [3] and in series [13] were 32.7% and 29.9%, respectively. Moreover, the Vd was determined as 1.24 L/kg in series [9] and 0.456 L/kg in series [4]. Besides, the values for the AUC in series [10] and in [5] were 2.38 µM·h and 3.58 µM·h, respectively. Also, the Activity in the series with Human coronavirus OC43 [11] came out at 100%. Besides, the half-life was 46.2 min in series [12] and 42.8 min in series [8]. For the same compound, the Stability in [14] worked out at 91%; in series [17], 84%. For the same compound, the clearance turned out to be 42 mL/min/kg in series [15] and 30.2 mL/min/kg in series [7]. Moreover, the Cmax in series [6] worked out at 2720 nM; in [16], 2140 nM.
Regarding `CC(C)(C)[C@H](NC(=O)C(F)(F)F)C(=O)N1C[C@@H]2CCC[C@@H]2[C@H]1C(=O)N[C@H](C#N)C[C@@H]1CCNC1=O`, the figures for the EC50 in the series on SARS-CoV-2 and with Human coronavirus OC43 [2] were 64 nM and 136 nM, respectively. Further, the bioavailability in series [3] came out at 13.3%; in series [13] it was 52%. Besides, the Vd was found to be 1.25 L/kg in series [9] and 0.64 L/kg in [4]. Further, it took 43 nM to reach half-maximal inhibition in series [1] (IC50). The AUC in series [10] stood at 2.31 µM·h; in series [5], 0.553 µM·h. Moreover, the half-life in series [12] is 14.3 min; in series [8], 6.66 min. Moreover, the figures for the Stability in series [14], in [18] and in series [17] were 102%, 106% and 100%, respectively. Further, the clearance in series [15] came out at 75.4 mL/min/kg; in series [7] it was 79.3 mL/min/kg. In addition, the highest concentration (Cmax) in [6] was found to be 790 nM; in series [16], 2980 nM.
For the compound `N#C[C@H](C[C@@H]1CCNC1=O)NC(=O)[C@@H]1[C@H]2CCC[C@H]2CN1C(=O)[C@@H](NC(=O)C(F)(F)F)C1CCCCC1`, the EC50 worked out at 43 nM with SARS-CoV-2 and 112 nM in the series with Human coronavirus OC43 [2]. Also, the results for the bioavailability in series [3] and in [13] were 14.2% and 57.6%, respectively. In addition, the Vd in series [9] is 1.34 L/kg; in series [4], 1.01 L/kg. In series [1], this compound had an IC50 of 47 nM. The exposure (AUC) in series [10] stood at 2.92 µM·h; in series [5], 0.478 µM·h. Moreover, the half-life in series [12] is 22.7 min; in series [8] it was 11.3 min. The Stability is 100% in series [14] and 108% in series [18]. For the same compound, the clearance turned out to be 62.7 mL/min/kg in [15] and 92.2 mL/min/kg in [7]. Besides, the Cmax stood at 1160 nM in series [6] and 3470 nM in series [16].
Consider `CC(C)(C)[C@H](NC(=O)C(F)(F)F)C(=O)N1C[C@@H]2C[C@@H]2[C@H]1C(=O)N[C@H](C#N)C[C@@H]1CCNC1=O`, for which half-maximal inhibition in series [1] (IC50) was put at 356 nM. Further, in the series on Human coronavirus OC43 [2], the midpoint of the response, the EC50, lay at 5810 nM.
Consider `N#C[C@H](C[C@@H]1CCNC1=O)NC(=O)[C@@H]1[C@H]2CCC[C@H]2CN1C(=O)[C@@H](NC(=O)C(F)(F)F)c1ccc(F)cc1`, for which, in series [1], the midpoint of inhibition, the IC50, lay at 165 nM. For the same compound, a half-maximal effect in the series with Human coronavirus OC43 [2] (EC50) was put at 677 nM.
In [1], `N#C[C@H](Cc1n[nH]c2ccccc12)NC(=O)[C@@H]1[C@H]2CCC[C@H]2CN1C(=O)[C@@H](NC(=O)C(F)(F)F)C1CCCCC1` returned an IC50 greater than 1000 nM. The midpoint of the response in the series on Human coronavirus OC43 [2], the EC50, lay at 4890 nM.
Turning to `CC(C)(C)NC(=O)C(=O)[C@H](C[C@@H]1CCNC1=O)NC(=O)[C@@H]1[C@H]2CCC[C@H]2CN1C(=O)[C@@H](NC(=O)C(F)(F)F)C1CCCCC1`, the concentration for a half-maximal effect (EC50) in the series on SARS-CoV-2 was determined as 53 nM; in the series with Human coronavirus OC43 [2], 146 nM. In addition, the bioavailability in series [3] was 32%; in [13], 37.4%. Besides, the Vd in [9] is 0.929 L/kg. For the same compound, the half-maximal inhibitory concentration (IC50) in series [1] turned out to be 34 nM. Besides, the figures for the AUC in series [10] and in [5] were 37.4 µM·h and 33 µM·h, respectively. Also, the Activity in the series on Human coronavirus OC43 [11] is 100%; with Human coronavirus OC43 [19] it was 66.6%; in the series on Human coronavirus OC43 [20], “Dose-Dependent Effect”; with Human coronavirus OC43 [21], 83.3%; in series [22], “Toxic”. Further, the half-life in series [12] is 262 min. For the same compound, the Stability in series [14] came out at 106%; in series [18] it was 102%; in [17] it was 96%. Moreover, in series [15], the clearance is 2.55 mL/min/kg. Moreover, the maximum concentration (Cmax) stood at 4810 nM in [6] and 3790 nM in series [16].

(Values after ChEMBL document CHEMBL5316373, “Discovery of novel bicyclic[3.3.0]proline peptidyl α-ketoamides as potent 3CL-protease inhibitors for SARS-CoV-2” (Bioorg Med Chem Lett, 2023).)
